“And” between values parts separate entries of the source, which are not always exact repeats. Equal entries are not always repeated.
What was measured:
Format in all cases: in vivo
[1] = test system: rabbit eye (anterior chamber paracentesis); experiment: Pupillary diameter measurement, rabbit paracentesis model; conditions: for Pupillary diameter T1: −180 min: 50 μl drops, −180 min (basal); for Pupillary diameter T1: −180 min / Pupillary diameter T2: −5 min / Pupillary diameter T3: +115 min: single eyes; for Pupillary diameter T2: −5 min: 5 min before the first paracentesis; for Pupillary diameter T3: +115 min: 5 min before the second paracentesis; for Pupillary diameter Mean Δ(T3 − T1): group mean, n=8 eyes
Protocol: (§1) Each rabbit was placed in a restraint device and tagged with the alphanumeric code. The formulations were instilled (50 μl) into the conjunctival sac of both eyes 180, 120, 90 and 30 min before the first paracentesis; then 15, 30, 90 min after the first paracentesis. To perform the first paracentesis the animals were anaesthetized by intravenous injection of 5 mg/kg Zoletil® (Virbac; 2.5 mg/kg tiletamine HCl and 2.5 mg/kg zolazepam HCl) and one drop of local anesthetic (Novesina®, Novartis) was administered to the eye. Anterior chamber paracentesis was performed with a 26 G needle attached to a tuberculin syringe; the needle was introduced into the anterior chamber through the cornea, taking care not to damage the tissues. Two hours after the first paracentesis, the animals were sacrificed with 0.4 ml Tanax® (Intervet International B.V.) and the second paracentesis was performed. About 100 μl of aqueous humor were removed at the second paracentesis. Aqueous humor was immediately split in four aliquots and stored at −80° C. until analysis. Then both eyes were enucleated and the iris-ciliary body was carefully excised, placed in polypropylene tubes, and stored at −80° C. until analysis.
The pupillary diameter of both eyes was measured with a Castroviejo caliper 180 min and 5 min before the first paracentesis and 5 min before the second paracentesis.

[2] = test system: rabbit eye (anterior chamber paracentesis); experiment: Clinical evaluation by slit lamp (clinical score), rabbit paracentesis model; set-up: key to Clinical Score −180 min / Clinical Score −5 min / Clinical Score +115 min: 0=normal; 1=discrete dilatation of iris and conjunctival vessels; 2=moderate dilatation of iris and conjunctival vessels; 3=intense iridal hyperemia with flare in the anterior chamber; 4=intense iridal hyperemia with flare in the anterior chamber and presence of fibrinous exudates; conditions: for Clinical Score −5 min: 5 min before the first paracentesis; for Clinical Score −5 min / Clinical Score +115 min / Clinical Score −180 min: single eyes; for Clinical Score +115 min: 5 min before the second paracentesis
[3] = test system: Prostaglandin E2 (PGE2); experiment: Prostaglandin E2 (PGE2) measurement in aqueous humor, rabbit paracentesis model; conditions: second paracentesis, group mean
Protocol: as §1
For the quantitative determination of PGE2 in the aqueous humor we used the PGE2 Immunoassay kit (R&D Systems; Cat.No. KGE004; Lot.No. 240010). Eleven microliters or 16 μl of aqueous humor were diluted to 110 μl or 160 μl with the calibrator diluent solution provided with the kit. One hundred microliters of samples and of standards were load into a 96-well plate and recorded in a plate layout. Samples were treated following the assay procedure described in the kit. A microplate reader (GDV, Italy; model DV 990 B/V6) set at 450 nm (wavelength correction at 540 nm) was used for making the calibration and analyzing the samples.

[4] = test system: protein in aqueous humor; experiment: Protein measurement in aqueous humor, rabbit paracentesis model; conditions: for Protein levels in aqueous humor (raw data): samples collected at the second paracentesis, single eyes; for Protein levels in aqueous humor, Mean: second paracentesis, group mean
Protocol: as §1
For protein concentration determination in the aqueous humor we used the Protein Quantification Kit (Fluka; Cat.No. 77371; Lot.No. 1303129). Five microliters of aqueous humor were diluted to 100 μl with water. Twenty microliters of samples and of standards were load into a 96-well plate and recorded in a plate layout. Samples were treated following the assay procedure described in the kit. A microplate reader (GDV, Italy; model DV 990 B/V6) set at 670 nm was used for making the calibration and analyzing the samples.

[5] = test system: Leukocytes (PMN); experiment: Leukocytes (PMN) measurement in aqueous humor, rabbit paracentesis model; conditions: for PMN numbers in aqueous humor, Mean: second paracentesis, group mean
Protocol: as §1
For the determination of the number of leukocytes we used a haemocytometer (Improved Neubauer Chamber; Bright-line, Hausser Scientific) and a Polyvar 2 microscope (Reichert-Jung).

[6] = test system: Myeloperoxidase (MPO); experiment: Myeloperoxidase (MPO) activity in iris-ciliary body, rabbit paracentesis model; conditions: for MPO activity in iris-ciliary body, Mean / MPO activity in iris-ciliary body: samples collected after the second paracentesis; for MPO activity in iris-ciliary body, Mean: group mean; for Δ/min (mean of the slope of the line recorded every 15 sec for 5 min) / MPO activity in iris-ciliary body: individual eyes
Protocol: 3.9 g of NaH2PO4 2H2O were dissolved in a volumetric flask to 500 ml with water. The pH was adjusted to pH=6 with 3N NaOH.
0.5 g of hexa-decyl-trimethyl-ammonium bromide was dissolved in 100 ml phosphate buffer.
The solution was prepared freshly. Ten microliters of H2O2 (30 wt. %) were diluted to 1 ml with water (solution A). 7.5 mg o-dianisidine 2HCl was dissolved in 45 ml of phosphate buffer and 75 μl of solution A were added.
as §1
The activity of MPO was measured as previously described by Williams et al.[5] The iris-ciliary bodies were carefully dried, weighed and immersed in 1 ml of hexa-decyl-trimethyl-ammonium bromide solution. Then, the samples were sonicated for 10 sec on ice by a ultrasound homogenizer (HD 2070, Bandelin electronic), freeze-thawed three times, sonicated for 10 sec and centrifuged at 14,000 g for 10 min to remove cellular debris. An aliquot of the supernatant (40-200 μl) was diluted to 3 ml with the o-dianisidine 2HCl/H2O2 solution. The change in absorbance at 460 nm was continuously monitored for 5 min by a spectrophotometer (UV/Vis Spectrometer Lambda EZ 201; Perkin Elmer). The slope of the line (Δ/min) was determined for each sample and used to calculate the number of units of MPO in the tissue as follows:
Values were expressed as units of MPO/g of tissue.

[7] = 0.5% topical, +115 min, N=8 eyes

## CC(C(=O)O)c1ccc(-c2ccccc2)c(F)c1 (stereo not drawn) [flurbiprofen]
[1]; 0.03% topical, listed as F
  Pupillary diameter T1: −180 min: 5.0 mm and 7.0 mm and 6.0 mm and 5.5 mm
  Pupillary diameter T2: −5 min: 6.0 mm and 6.5 mm and 7.0 mm and 5.5 mm
  Pupillary diameter T3: +115 min: 4.0 mm and 3.5 mm and 5.5 mm and 5.0 mm and 4.5 mm and 6.0 mm
[1]; 0.03% topical
  Pupillary diameter Mean Δ(T3 − T1): −0.9 mm
[2]; 0.03% topical
  Clinical Score −5 min: 0
  Clinical Score +115 min: 2
[2]; 0.03% topical, +115 min, N=8 eyes
  Percentage of eyes with clinical score 2: 100%
[2]; 0.03% topical, −5 min, N=8 eyes
  Percentage of eyes with clinical score 0: 100%
[2]; 0.03% topical, −180 min (basal), N=8 eyes
  Percentage of eyes with clinical score 0: 100%
[2]; 0.03% topical, −180 min (basal)
  Clinical Score −180 min: 0
[3]; 0.03% topical
  Levels of PGE2 in aqueous humor, Mean: 1.189 ng/mL
[4]; 0.03% topical, listed as F
  Protein levels in aqueous humor (raw data): 20.78 mg/mL and 28.80 mg/mL and 23.41 mg/mL and 20.21 mg/mL and 17.53 mg/mL and 15.12 mg/mL and 20.52 mg/mL
[4]; 0.03% topical
  Protein levels in aqueous humor, Mean: 20.910 mg/mL
[5]; 0.03% topical
  PMN numbers in aqueous humor, Mean: 30.000 number/μl
[6]; 0.03% topical
  MPO activity in iris-ciliary body, Mean: 0.906 MPO Unit/g
[6]; 0.03% treatment, 100 μl supernatant aliquot diluted to 3 ml, listed as F
  Δ/min (mean of the slope of the line recorded every 15 sec for 5 min): 0.049 and 0.082 and 0.013 and 0.031 and 0.038 and 0.027 and 0.033 and 0.061
[6]; 0.03% treatment, listed as F
  MPO activity in iris-ciliary body: 1.10 Unit/g and 1.70 Unit/g and 0.34 Unit/g and 0.75 Unit/g and 0.74 Unit/g and 0.63 Unit/g and 0.73 Unit/g and 1.27 Unit/g

## CCOC(=O)O[C@]1(C(=O)OCCl)CC[C@H]2[C@@H]3CCC4=CC(=O)C=C[C@]4(C)[C@H]3[C@@H](O)C[C@@]21C [loteprednol etabonate]
[1]; 0.5% topical, listed as LE
  Pupillary diameter T1: −180 min: 6.0 mm and 6.5 mm
  Pupillary diameter T2: −5 min: 6.0 mm and 6.5 mm
  Pupillary diameter T3: +115 min: 4.5 mm and 5.0 mm and 5.5 mm and 6.0 mm
[1]; 0.5% topical
  Pupillary diameter Mean Δ(T3 − T1): −0.9 mm
[2]; 0.5% topical
  Clinical Score −5 min: 0
[2]; 0.5% topical, listed as LE
  Clinical Score +115 min: 2 and 1
[2]; [7]
  Percentage of eyes with clinical score 1: 75%
  Percentage of eyes with clinical score 2: 25%
[2]; 0.5% topical, −5 min, N=8 eyes
  Percentage of eyes with clinical score 0: 100%
[2]; 0.5% topical, −180 min (basal), N=8 eyes
  Percentage of eyes with clinical score 0: 100%
[2]; 0.5% topical, −180 min (basal)
  Clinical Score −180 min: 0
[3]; 0.5% topical
  Levels of PGE2 in aqueous humor, Mean: 0.672 ng/mL
[4]; 0.5% topical, listed as LE
  Protein levels in aqueous humor (raw data): 36.14 mg/mL and 39.10 mg/mL and 34.69 mg/mL and 26.10 mg/mL and 26.30 mg/mL and 28.16 mg/mL and 40.90 mg/mL and 39.85 mg/mL
[4]; 0.5% topical
  Protein levels in aqueous humor, Mean: 33.905 mg/mL
[5]; 0.5% topical, samples collected at the second paracentesis, single eyes, listed as LE
  PMN numbers in aqueous humor (raw data): 40 number/μl and 20 number/μl and 30 number/μl
[5]; 0.5% topical
  PMN numbers in aqueous humor, Mean: 28.333 number/μl
[6]; 0.5% topical
  MPO activity in iris-ciliary body, Mean: 0.661 MPO Unit/g
[6]; 0.5% treatment, 200 μl supernatant aliquot diluted to 3 ml, listed as LE
  Δ/min (mean of the slope of the line recorded every 15 sec for 5 min): 0.026 and 0.053 and 0.067 and 0.055 and 0.076 and 0.096
[6]; 0.5% treatment, listed as LE
  MPO activity in iris-ciliary body: 0.30 Unit/g and 0.51 Unit/g and 0.81 Unit/g and 0.60 Unit/g and 0.73 Unit/g and 1.01 Unit/g
